# Source: patent US9476099B2 (TRUSTEES OF DARTMOUTH COLLEGE, priority 2012, dated 2016)
# Test system: NT2/D1-R1 control and DNMT3B knockdown cells
# Assay: Genome-wide expression analysis with PAM clusters, control and DNMT3B knockdown cells (Tables 8-14)
# Settings: sh-3B + aza, NT2/D1-R1 DNMT3B knockdown, decitabine 10 nM 3 days
compound,measurement,setting,value
Nc1ncn([C@H]2C[C@H](O)[C@@H](CO)O2)c(=O)n1 [aza],"ACSS2 (NM_0010765) gene expression, Mean",,406.693
same,"ADCK1 (NM_020421) gene expression, Mean",,305.179
same,"ADCY1 (NM_021116) gene expression, Mean",,138.949
same,"AGAP1 (NM_014914) gene expression, Mean",,225.72
same,"AK056312 gene expression, Mean",,471.555
same,"ANKRD9 (NM_152326) gene expression, Mean",,896.077
same,"APEH (NM_001640) gene expression, Mean",,1236.16
same,"APP (NM_201414) gene expression, Mean",,393.758
same,"C1orf115 (NM_024709) gene expression, Mean",,380.885
same,"C2orf34 (NM_024766) gene expression, Mean",,286.591
same,"C7orf47 (NM_145030) gene expression, Mean",,749.147
same,"C16orf35 (NM_0010394) gene expression, Mean",,464.104
same,"CA4 (NM_000717) gene expression, Mean",,1313.05
same,"CACNA2D2 (NM_006030) gene expression, Mean",,398.095
same,"CD24 (NM_013230) gene expression, Mean",,4095.34
same,"CD248 (NM_020404) gene expression, Mean",,166.587
same,"CDC42EP5 (NM_145057) gene expression, Mean",,232.63
same,"CDH3 (NM_001793) gene expression, Mean",,1031.14
same,"CEBPB (NM_005194) gene expression, Mean",,886.982
same,"CHST13 (NM_152889) gene expression, Mean",,184.993
same,"CLASP1 (NM_015282) gene expression, Mean",,448.757
same,"CLIP2 (NM_032421) gene expression, Mean",,216.273
same,"COMMD1 (NM_152516) gene expression, Mean",,327.95
same,"COMMD7 (NM_0010993) gene expression, Mean",,1236.98
same,"CRMP1 (NM_0010148) gene expression, Mean",,628.721
same,"CTNNBIP1 (NM_020248) gene expression, Mean",,181.632
same,"CXCL16 (NM_022059) gene expression, Mean",,276.818
same,"CYP2F1 (NM_000774) gene expression, Mean",,134.435
same,"CYP2S1 (NM_030622) gene expression, Mean",,1003.81
same,"DBC1 (NM_014618) gene expression, Mean",,313.757
same,"DDIT4 (NM_019058) gene expression, Mean",,558.55
same,"DGKQ (NM_001347) gene expression, Mean",,236.075
same,"DLL3 (NM_016941) gene expression, Mean",,150.963
same,"DPYSL3 (NM_001387) gene expression, Mean",,841.778
same,"DYM (NM_017653) gene expression, Mean",,332.811
same,"DYSF (NM_003494) gene expression, Mean",,345.371
same,"EPHA1 (NM_005232) gene expression, Mean",,886.512
same,"EVI5L (NM_145245) gene expression, Mean",,248.688
same,"EVL (NM_016337) gene expression, Mean",,840.767
same,"EXTL3 (NM_001440) gene expression, Mean",,869.111
same,"F11R (NM_016946) gene expression, Mean",,218.843
same,"FAF1 (NM_007051) gene expression, Mean",,266.415
same,"FAM125A (NM_138401) gene expression, Mean",,558.795
same,"FAM127A (NM_0010781) gene expression, Mean",,1016.07
same,"FCGBP (NM_003890) gene expression, Mean",,279.685
same,"FDFT1 (NM_004462) gene expression, Mean",,705.216
same,"FIGNL2 (NM_0010136) gene expression, Mean",,289.159
same,"FLNB (NM_001457) gene expression, Mean",,960.275
same,"FOXN3 (NM_005197) gene expression, Mean",,518.292
same,"GAL (NM_015973) gene expression, Mean",,1768.85
same,"GAS7 (NM_201433) gene expression, Mean",,308.927
same,"GLG1 (NM_012201) gene expression, Mean",,913.909
same,"GRAMD1A (NM_020895) gene expression, Mean",,607.142
same,"GTF3C1 (NM_001520) gene expression, Mean",,626.338
same,"HCFC1R1 (NM_0010020) gene expression, Mean",,798.561
same,"HESX1 (NM_003865) gene expression, Mean",,379.045
same,"HINT2 (NM_032593) gene expression, Mean",,706.883
same,"HIST3H2A (NM_033445) gene expression, Mean",,282.379
same,"HIST4H4 (NM_003541) gene expression, Mean",,314.561
same,"HK1 (NM_033500) gene expression, Mean",,4205.36
same,"IDH1 (NM_005896) gene expression, Mean",,1445.11
same,"IL21R (NM_181078) gene expression, Mean",,161.219
same,"JPH3 (NM_020655) gene expression, Mean",,214.843
same,"KIF1A (NM_004321) gene expression, Mean",,150.02
same,"KIF1B (NM_015074) gene expression, Mean",,393.388
same,"LDB2 (NM_001290) gene expression, Mean",,259.706
same,"LDOC1 (NM_012317) gene expression, Mean",,881.126
same,"LHFPL4 (NM_198560) gene expression, Mean",,515.175
same,"LONP1 (NM_004793) gene expression, Mean",,1192.71
same,"LPCAT3 (NM_005768) gene expression, Mean",,456.787
same,"LRBA (NM_006726) gene expression, Mean",,267.501
same,"LRRC33 (NM_198565) gene expression, Mean",,257.521
same,"MAPK3 (NM_0010400) gene expression, Mean",,447.115
same,"MAPKAP1 (NM_0010066) gene expression, Mean",,274.663
same,"MED30 (NM_080651) gene expression, Mean",,707.11
same,"MID1IP1 (NM_021242) gene expression, Mean",,1496.95
same,"MKRN1 (NM_013446) gene expression, Mean",,3678.37
same,"MSRB2 (NM_012228) gene expression, Mean",,698.39
same,"MYO5C (NM_018728) gene expression, Mean",,203.184
same,"NANOG (NM_024865) gene expression, Mean",,1405.64
same,"NCOR2 (NM_006312) gene expression, Mean",,1205.94
same,"NDUFS4 (NM_002495) gene expression, Mean",,375.498
same,"NFE2L3 (NM_004289) gene expression, Mean",,395.959
same,"NGFRAP1 (NM_206917) gene expression, Mean",,1522.67
same,"NKX3-2 (NM_001189) gene expression, Mean",,358.543
same,"NM_014745 gene expression, Mean",,246.953
same,"NPAS1 (NM_002517) gene expression, Mean",,227.998
same,"NPTX2 (NM_002523) gene expression, Mean",,279.223
same,"ODZ3 (NM_0010804) gene expression, Mean",,220.124
same,"P4HB (NM_000918) gene expression, Mean",,2039.07
same,"PACSIN1 (NM_020804) gene expression, Mean",,268.257
same,"PCDH19 (NM_020766) gene expression, Mean",,187.553
same,"PCK2 (NM_0010180) gene expression, Mean",,126.174
same,"PDZD4 (NM_032512) gene expression, Mean",,283.495
same,"PEMT (NM_148172) gene expression, Mean",,1036.99
same,"PEX14 (NM_004565) gene expression, Mean",,423.992
same,"PGM1 (NM_002633) gene expression, Mean",,3256.12
same,"PHC1 (NM_004426) gene expression, Mean",,2226.1
same,"PIM2 (NM_006875) gene expression, Mean",,2475.84
same,"PITPNC1 (NM_181671) gene expression, Mean",,287.618
same,"PNKP (NM_007254) gene expression, Mean",,570.846
same,"PPAP2A (NM_176895) gene expression, Mean",,646.273
same,"PPP1R1B (NM_181505) gene expression, Mean",,588.401
same,"PQLC3 (NM_152391) gene expression, Mean",,307.634
same,"PRSS8 (NM_002773) gene expression, Mean",,925.924
same,"PSAT1 (NM_021154) gene expression, Mean",,2370.22
same,"PTOV1 (NM_017432) gene expression, Mean",,1244.12
same,"PTPLA (NM_014241) gene expression, Mean",,295.309
same,"RAB3IP (NM_175624) gene expression, Mean",,976.727
same,"RALY (NM_007367) gene expression, Mean",,1409.6
same,"RASIP1 (NM_017805) gene expression, Mean",,236.587
same,"RASL11B (NM_023940) gene expression, Mean",,570.022
same,"RCN2 (NM_002902) gene expression, Mean",,957.657
same,"REEP6 (NM_138393) gene expression, Mean",,581.805
same,"RNF130 (NM_018434) gene expression, Mean",,258.36
same,"ROD1 (NM_005156) gene expression, Mean",,1065.57
same,"RPS6KA2 (NM_0010069) gene expression, Mean",,170.158
same,"SAT1 (NM_002970) gene expression, Mean",,2411.02
same,"SCARB1 (NM_005505) gene expression, Mean",,698.95
same,"SCNN1A (NM_001038) gene expression, Mean",,2384.6
same,"SEMA4B (NM_198925) gene expression, Mean",,455.134
same,"SEMA4D (NM_006378) gene expression, Mean",,404.578
same,"SEMA6B (NM_032108) gene expression, Mean",,327.203
same,"SH2B3 (NM_005475) gene expression, Mean",,459.878
same,"SLC3A2 (NM_0010132) gene expression, Mean",,701.201
same,"SLC8A2 (NM_015063) gene expression, Mean",,221.546
same,"SLC16A10 (NM_018593) gene expression, Mean",,222.7
same,"SLC22A23 (NM_021945) gene expression, Mean",,371.628
same,"SND1 (NM_014390) gene expression, Mean",,806.495
same,"SOX2 (NM_003106) gene expression, Mean",,507.636
same,"SPRY1 (NM_005841) gene expression, Mean",,278.849
same,"SPSB2 (NM_032641) gene expression, Mean",,738.293
same,"SRPX (NM_006307) gene expression, Mean",,221.585
same,"SURF6 (NM_006753) gene expression, Mean",,1956.16
same,"TBCD (NM_005993) gene expression, Mean",,565.581
same,"TCEA2 (NM_198723) gene expression, Mean",,471.659
same,"TCF7L1 (NM_031283) gene expression, Mean",,182.485
same,"TIMP4 (NM_003256) gene expression, Mean",,657.953
same,"TMC6 (NM_007267) gene expression, Mean",,426.897
same,"TMEM145 (NM_173633) gene expression, Mean",,204.077
same,"TPST2 (NM_0010085) gene expression, Mean",,683.535
same,"TRAPPC9 (NM_031466) gene expression, Mean",,145.068
same,"TSPAN9 (NM_006675) gene expression, Mean",,1493.67
same,"TUBB4 (NM_006087) gene expression, Mean",,455.752
same,"UBE2E2 (NM_152653) gene expression, Mean",,521.892
same,"UNC84B (NM_015374) gene expression, Mean",,307.131
same,"VCX2 (NM_016378) gene expression, Mean",,178.538
same,"VCX3A (NM_016379) gene expression, Mean",,405.641
same,"VCX3B (NM_0010018) gene expression, Mean",,466.812
same,"VSNL1 (NM_003385) gene expression, Mean",,462.603
same,"WDR8 (NM_017818) gene expression, Mean",,819.149
same,"XBP1 (NM_0010795) gene expression, Mean",,860.839
same,"XM_373896 gene expression, Mean",,451.855
same,"XM_926633 gene expression, Mean",,6671.37
same,"XM_932919 gene expression, Mean",,278.004
same,"XM_933796 gene expression, Mean",,430.873
same,"XM_943677 gene expression, Mean",,268.065
same,"ZBTB46 (NM_025224) gene expression, Mean",,246.643
same,"ZSWIM4 (NM_023072) gene expression, Mean",,558.806
same,"HIST1H2BK (NM_080593) gene expression, Mean",first HIST1H2BK entry (r906),1161.66
same,"TRPC4AP (NM_015638) gene expression, Mean",first TRPC4AP entry (r880),1093.15
same,"HIST1H2BK (NM_080593) gene expression, Mean",second HIST1H2BK entry (r952),355.319
same,"TRPC4AP (NM_015638) gene expression, Mean",second TRPC4AP entry (r892),1137.74
